Assay results taken from PubChem BioAssay (NCI).
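96-well plates; 48 h exposure; 5 concentrations. Endpoints by linear interpolation between flanking doses. Not reached: highest tested concentration assigned. At the GI50, growth is halved. At the TGI there is no net growth.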

Tests used:
Experiment in all cases: growth of human tumour cells (NCI), 48 h
[1] = test system: 786-0 renal
[2] = test system: A498 renal
[3] = test system: A549 NSCLC
[4] = test system: ACHN renal
[5] = test system: CAKI-1 renal
[6] = test system: CCRF-CEM leukemia
[7] = test system: COLO 205 colon
[8] = test system: DLD-1 colon
[9] = test system: DMS 273 small cell lung
[10] = test system: EKVX NSCLC
[11] = test system: HCC-2998 colon
[12] = test system: HCT-116 colon
[13] = test system: HCT-15 colon
[14] = test system: HL-60(TB) leukemia
[15] = test system: HOP-18 NSCLC
[16] = test system: HOP-62 NSCLC
[17] = test system: HT29 colon
[18] = test system: IGROV1 ovarian
[19] = test system: K-562 leukemia
[20] = test system: KM12 colon
[21] = test system: KM20L2 colon
[22] = test system: LXFL 529 NSCLC
[23] = test system: M14 melanoma
[24] = test system: M19-MEL melanoma
[25] = test system: MALME-3M melanoma
[26] = test system: MOLT-4 leukemia
[27] = test system: NCI-H226 lung
[28] = test system: NCI-H23 lung
[29] = test system: NCI-H460 lung
[30] = test system: NCI-H522 lung
[31] = test system: OVCAR-3 ovarian
[32] = test system: OVCAR-4 ovarian
[33] = test system: OVCAR-5 ovarian
[34] = test system: OVCAR-8 ovarian
[35] = test system: RPMI-8226 leukemia
[36] = test system: RXF-631 renal
[37] = test system: SF-295 CNS
[38] = test system: SF-539 CNS
[39] = test system: SK-MEL-2 melanoma
[40] = test system: SK-MEL-5 melanoma
[41] = test system: SK-OV-3 ovarian
[42] = test system: SN12C renal
[43] = test system: SNB-19 CNS
[44] = test system: SNB-75 CNS
[45] = test system: SNB-78 CNS
[46] = test system: SR leukemia
[47] = test system: SW-620 colon
[48] = test system: TK-10 renal
[49] = test system: U251 CNS
[50] = test system: UACC-257 melanoma
[51] = test system: UACC-62 melanoma
[52] = test system: UO-31 renal
[53] = test system: XF 498 CNS
[54] = test system: HOP-92 NSCLC
[55] = test system: LOX IMVI melanoma
[56] = test system: RXF 393 renal
[57] = test system: SF-268 CNS
[58] = test system: SK-MEL-28 melanoma
[59] = test system: DMS 114 small cell lung

SMILES: O=C1c2ccccc2C(=O)N1C/C=N/NS(=O)(=O)c1ccc2ccccc2c1
- TGI [1]: > 100 µM
- TGI [2]: > 100 µM
- TGI [3]: > 100 µM
- TGI [4]: > 100 µM
- TGI [5]: > 100 µM
- TGI [6]: > 100 µM
- TGI [7]: > 100 µM
- TGI [8]: > 100 µM
- TGI [9]: > 100 µM
- TGI [10]: > 100 µM
- TGI [11]: > 100 µM
- TGI [12]: > 100 µM
- TGI [13]: > 100 µM
- TGI [14]: > 100 µM
- TGI [15]: > 100 µM
- TGI [16]: > 100 µM
- TGI [17]: > 100 µM
- TGI [18]: > 100 µM
- TGI [19]: > 100 µM
- TGI [20]: > 100 µM
- TGI [21]: > 100 µM
- TGI [22]: > 100 µM
- TGI [23]: > 100 µM
- TGI [24]: > 100 µM
- TGI [25]: > 100 µM
- TGI [26]: > 100 µM
- TGI [27]: > 100 µM
- TGI [28]: > 100 µM
- TGI [29]: > 100 µM
- TGI [30]: > 100 µM
- TGI [31]: > 100 µM
- TGI [32]: > 100 µM
- TGI [33]: > 100 µM
- TGI [34]: > 100 µM
- TGI [35]: > 100 µM
- TGI [36]: > 100 µM
- TGI [37]: > 100 µM
- TGI [38]: > 100 µM
- TGI [39]: > 100 µM
- TGI [40]: > 100 µM
- TGI [41]: > 100 µM
- TGI [42]: > 100 µM
- TGI [43]: > 100 µM
- TGI [44]: > 100 µM
- TGI [45]: > 100 µM
- TGI [46]: > 100 µM
- TGI [47]: > 100 µM
- TGI [48]: > 100 µM
- TGI [49]: > 100 µM
- TGI [50]: > 100 µM
- TGI [51]: > 100 µM
- TGI [52]: > 100 µM
- TGI [53]: > 100 µM

SMILES: Cc1ccc(S(=O)(=O)O/N=C2\CCC\C2=C/c2ccccc2)cc1
- TGI [1]: 67.9 µM
- TGI [3]: > 100 µM
- TGI [4]: 23.3 µM
- TGI [5]: 36.8 µM
- TGI [6]: > 100 µM
- TGI [7]: 29.8 µM
- TGI [8]: 46.3 µM
- TGI [9]: > 100 µM
- TGI [10]: 35.3 µM
- TGI [11]: 31.6 µM
- TGI [12]: 25.3 µM
- TGI [13]: 73.8 µM
- TGI [14]: > 100 µM
- TGI [15]: 34.6 µM
- TGI [16]: > 100 µM
- TGI [54]: 34.5 µM
- TGI [17]: 60.1 µM
- TGI [18]: > 100 µM
- TGI [19]: > 100 µM
- TGI [20]: 32.6 µM
- TGI [21]: 49 µM
- TGI [55]: > 100 µM
- TGI [22]: 83.9 µM
- TGI [23]: 47.4 µM
- TGI [24]: 44.3 µM
- TGI [26]: 29.2 µM
- TGI [27]: 37.7 µM
- TGI [28]: 38.9 µM
- TGI [29]: 47.9 µM
- TGI [30]: 37.8 µM
- TGI [31]: 32.8 µM
- TGI [32]: 58.6 µM
- TGI [33]: 42.6 µM
- TGI [34]: > 100 µM
- TGI [35]: 37.3 µM
- TGI [56]: 44 µM
- TGI [36]: 36.5 µM
- TGI [57]: 27.7 µM
- TGI [37]: 50.1 µM
- TGI [38]: 43.5 µM
- TGI [39]: 30.8 µM
- TGI [58]: 24.1 µM
- TGI [40]: 28.4 µM
- TGI [41]: > 100 µM
- TGI [42]: > 100 µM
- TGI [43]: > 100 µM
- TGI [44]: 44.1 µM
- TGI [45]: 13 µM
- TGI [46]: 43.4 µM
- TGI [47]: > 100 µM
- TGI [48]: 30.4 µM
- TGI [49]: 88.6 µM
- TGI [50]: 31.4 µM
- TGI [51]: 27.2 µM
- TGI [52]: 42.5 µM
- TGI [53]: 33.3 µM

SMILES: CC(C)(C)N=Cc1ccccc1[O-].CC(C)(C)N=Cc1ccccc1[O-].[Co+2]
- GI50 [1]: 72.4 µM
- TGI [1]: > 100 µM
- GI50 [3]: > 100 µM
- TGI [3]: > 100 µM
- GI50 [5]: 59.3 µM
- TGI [5]: > 100 µM
- GI50 [7]: 45.3 µM
- TGI [7]: > 100 µM
- GI50 [8]: 52.7 µM
- TGI [8]: > 100 µM
- GI50 [59]: 26.1 µM
- TGI [59]: > 100 µM
- GI50 [9]: 37.2 µM
- TGI [9]: > 100 µM
- GI50 [10]: 60.7 µM
- TGI [10]: > 100 µM
- GI50 [11]: > 100 µM
- TGI [11]: > 100 µM
- GI50 [12]: 80.4 µM
- TGI [12]: > 100 µM
- GI50 [13]: > 100 µM
- TGI [13]: > 100 µM
- GI50 [15]: 7.08 µM
- TGI [15]: 83 µM
- GI50 [18]: 22.8 µM
- TGI [18]: > 100 µM
- GI50 [20]: > 100 µM
- TGI [20]: > 100 µM
- GI50 [21]: 72.8 µM
- TGI [21]: > 100 µM
- GI50 [55]: > 100 µM
- TGI [55]: > 100 µM
- GI50 [22]: 83.9 µM
- TGI [22]: > 100 µM
- GI50 [23]: 30.2 µM
- TGI [23]: > 100 µM
- GI50 [24]: 54.4 µM
- TGI [24]: > 100 µM
- GI50 [25]: 93.5 µM
- TGI [25]: > 100 µM
- GI50 [27]: 21.9 µM
- TGI [27]: > 100 µM
- GI50 [28]: 8.39 µM
- TGI [28]: > 100 µM
- GI50 [29]: > 100 µM
- TGI [29]: > 100 µM
- GI50 [30]: 30.3 µM
- TGI [30]: > 100 µM
- GI50 [31]: 17.4 µM
- TGI [31]: > 100 µM
- GI50 [32]: 56.5 µM
- TGI [32]: > 100 µM
- GI50 [33]: 3.31 µM
- TGI [33]: > 100 µM
- GI50 [34]: 76.7 µM
- TGI [34]: > 100 µM
- GI50 [35]: 18 µM
- TGI [35]: > 100 µM
- GI50 [56]: > 100 µM
- TGI [56]: > 100 µM
- GI50 [36]: 23.2 µM
- TGI [36]: > 100 µM
- GI50 [57]: 60.7 µM
- TGI [57]: > 100 µM
- GI50 [37]: > 100 µM
- TGI [37]: > 100 µM
- GI50 [38]: > 100 µM
- TGI [38]: > 100 µM
- GI50 [39]: > 100 µM
- TGI [39]: > 100 µM
- GI50 [58]: 55.8 µM
- TGI [58]: > 100 µM
- GI50 [40]: 89.4 µM
- TGI [40]: > 100 µM
- GI50 [42]: > 100 µM
- TGI [42]: > 100 µM
- GI50 [43]: > 100 µM
- TGI [43]: > 100 µM
- GI50 [44]: > 100 µM
- TGI [44]: > 100 µM
- GI50 [46]: 6.3 µM
- TGI [46]: > 100 µM
- GI50 [47]: 70.3 µM
- TGI [47]: > 100 µM
- GI50 [48]: 44.5 µM
- TGI [48]: > 100 µM
- GI50 [49]: 58.2 µM
- TGI [49]: > 100 µM
- GI50 [51]: 12.1 µM
- TGI [51]: > 100 µM
- GI50 [52]: 18.8 µM
- TGI [52]: > 100 µM
- GI50 [53]: > 100 µM
- TGI [53]: > 100 µM

SMILES: Nc1nc[n+](Cc2ccccc2CCO)c2nc[nH]c12
- TGI [1]: > 100 µM
- TGI [2]: > 100 µM
- TGI [3]: > 100 µM
- TGI [4]: > 100 µM
- TGI [5]: > 100 µM
- TGI [6]: > 100 µM
- TGI [7]: > 100 µM
- TGI [59]: > 100 µM
- TGI [9]: > 100 µM
- TGI [10]: > 100 µM
- TGI [13]: > 100 µM
- TGI [14]: > 100 µM
- TGI [15]: > 100 µM
- TGI [16]: > 100 µM
- TGI [54]: > 100 µM
- TGI [17]: > 100 µM
- TGI [18]: > 100 µM
- TGI [19]: > 100 µM
- TGI [20]: > 100 µM
- TGI [21]: > 100 µM
- TGI [55]: > 100 µM
- TGI [22]: > 100 µM
- TGI [23]: > 100 µM
- TGI [24]: > 100 µM
- TGI [25]: > 100 µM
- TGI [26]: > 100 µM
- TGI [27]: > 100 µM
- TGI [28]: > 100 µM
- TGI [29]: > 100 µM
- TGI [30]: > 100 µM
- TGI [31]: > 100 µM
- TGI [32]: > 100 µM
- TGI [33]: > 100 µM
- TGI [34]: > 100 µM
- TGI [35]: > 100 µM
- TGI [56]: > 100 µM
- TGI [36]: > 100 µM
- TGI [57]: > 100 µM
- TGI [37]: > 100 µM
- TGI [38]: > 100 µM
- TGI [39]: > 100 µM
- TGI [58]: > 100 µM
- TGI [40]: > 100 µM
- TGI [41]: > 100 µM
- TGI [42]: > 100 µM
- TGI [43]: > 100 µM
- TGI [44]: > 100 µM
- TGI [47]: > 100 µM
- TGI [48]: > 100 µM
- TGI [49]: > 100 µM
- TGI [50]: > 100 µM
- TGI [51]: > 100 µM
- TGI [52]: > 100 µM
- TGI [53]: > 100 µM
